Data on 15 molecules can be found in PubChem BioAssay (NCI).

Values joined by “and” are separate entries in the source; they are usually repeats but may differ in a detail not shown here. Identical values can stand only once.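 Briefly, cells in 96-well plates were exposed to five compound concentrations for 48 h, and endpoints were estimated by linear interpolation. GI50 = concentration required for 50% inhibition of growth. TGI: concentration producing complete growth inhibition.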

Holding throughout (assay): DTP human tumour cell line panel, 48 h
Assay [1] deals with NCI-H460 lung.
Assay [2] has as its system SF-295 CNS.
Assay [3] deals with NCI-H522 lung.
Assay [4] relates to UACC-257 melanoma.
Assay [5] deals with LOX IMVI melanoma.
The subject of assay [6] is KM12 colon.
The subject of assay [7] is SK-OV-3 ovarian.
The test system of assay [8] is NCI/ADR-RES ovarian.
Assay [9] concerns PC-3 prostate.
In assay [10] the test system is T-47D breast.

Broadly, the TGI is the concentration at which net growth stops. A low value points to more potent growth arrest. In the case of `NS(=O)(=O)c1ccc(Nc2c3ccccc3nc3c(C(=O)N4CCN(CCO)CC4)cccc23)cc1`, the concentration for total growth inhibition (TGI) in assay [1], in [2], in [3], in [4], in [5] and in [6] was above 100 µM each time. In assay [7], this molecule yielded a concentration for total growth inhibition (TGI) above 100 µM.

By GI50 is commonly meant the concentration at which growth is held to half of that of the control. On to `N#CC(C#N)=C1CCOc2ccc(F)cc21`, for which the GI50 in [8] is 16.1 µM; in assay [1], 14.2 µM; in assay [2] it was 16.9 µM; in assay [3] it was above 100 µM; in assay [4], above 100 µM; in [5], 11.7 µM. For the same molecule, the figures for the GI50 in assay [6], in [7] and in assay [9] were 49.7 µM, 16.3 µM and 13.9 µM, respectively. The TGI in [8] is 29.6 µM; in assay [1], 30.4 µM; in assay [2], 41 µM; in [3] it was above 100 µM; in assay [4], above 100 µM; in assay [5], 23.9 µM. The TGI in [6] was above 100 µM; in [7], 30.7 µM; in [9] it was 26.8 µM.

As to `O=[N+]([O-])c1ccc(C(Cl)C(Cl)c2ccc(C(Cl)C(Cl)c3ccc([N+](=O)[O-])cc3[N+](=O)[O-])cc2)c([N+](=O)[O-])c1` (stereo not given), the GI50 in assay [1] was 0.249 µM; in assay [2], 0.602 µM; in assay [3], 0.183 µM; in assay [5] it was 0.403 µM; in [7], 6.36 µM. In addition, the concentration for total growth inhibition (TGI) in assay [1] is 2.15 µM and 0.723 µM; in assay [2], 25.8 µM and 5.76 µM; in assay [3], 2.36 µM and 0.447 µM; in assay [4], 5.77 µM; in assay [5] it was 5.96 µM and 1.72 µM; in assay [6], 0.812 µM. Moreover, in assay [7], the TGI is > 62 µM and 51.1 µM.

On to `CCN(CC)CC(C)C(=O)/C=C/c1ccc(C)cc1` (stereo not given), for which the TGI in [1] came to 17 µM; in assay [2], 28.6 µM; in assay [4] it was 4.1 µM; in assay [5], 2.69 µM; in assay [6], 1.96 µM; in assay [7], 30.7 µM.

With `CC(C)(C)c1cc(CCCCCCCC2(CCCCCCCc3cc(C(C)(C)C)cc(C(C)(C)C)c3)OC(COCCOCCCCCC#N)C(COCCOCCCCCC#N)O2)cc(C(C)(C)C)c1` (stereo not given), the TGI in assay [1], in [2], in assay [3], in assay [4], in [5] and in assay [6] was above 100 µM throughout. The concentration for total growth inhibition (TGI) in assay [7] is above 100 µM.

As for `Cc1ccc(S(=O)(=O)N2CCN(C=S)CC2)cc1`, the TGI in [1], in assay [3], in assay [4], in assay [5], in assay [6] and in assay [7] was above 100 µM in each case.

With `CC1=NN(C(=O)Nc2ccc(Cl)cc2)C(=O)C2CCC(=O)N12` (stereo not given), the TGI in [1], in [2], in assay [4], in assay [5], in [6] and in assay [7] was above 100 µM throughout.

Take `O=C(N/C(=C\c1cccc([N+](=O)[O-])c1)c1nc2ccccc2[nH]1)c1ccccc1`: the TGI in assay [1], in assay [3], in assay [4], in assay [6] and in assay [7] was above 100 µM throughout.

As for `CC(=O)O[C@H]1CCN2C(=O)C=CC(OCc3ccccc3)C12` (stereo not given in full), the TGI in [1], in [2], in [4], in assay [5], in assay [6] and in assay [7] was above 100 µM throughout.

For the molecule `CSc1nc2nn(Cc3ccccc3)cc2c(=O)[nH]1`, the TGI in [1], in [2], in [3], in assay [4], in assay [5] and in assay [6] was above 100 µM in each case. The molecule also came in with a TGI in assay [7] above 100 µM.

Regarding `N#CCC(=O)N/N=C1/C(=O)N(c2cc(Cl)ccc2Cl)C(=O)C(=O)C1c1nc2ccccc2s1` (stereo not given), the TGI in assay [1], in [2], in [3], in assay [4], in assay [5] and in [6] was above 100 µM each time. In [7], this molecule registered a TGI above 100 µM.

Turning to `COc1cccc(/C=C/C(=O)c2sc(C(N)=S)nc2C)c1O`, the TGI is above 100 µM in assay [1]; above 100 µM in assay [2]; above 74 µM in assay [3]; above 100 µM in assay [4]; 56.7 µM in [5]; above 100 µM in assay [6]. Also, the TGI in assay [7] is above 100 µM.

For the molecule `CCOc1cn(C2OC(CO)C(O)C2O)c(=O)[nH]c1=O` (stereo not given), the TGI in assay [1], in [2], in assay [3], in assay [4], in assay [5] and in [6] was above 100 µM throughout. Besides, in assay [7], the TGI is above 100 µM.

`COc1cc(CNCCN2C(=O)c3ccc4c5c(ccc(c35)C2=O)C(=O)N(CCNCc2cc(OC)c(OC)c(OC)c2)C4=O)cc(OC)c1OC`: the GI50 is 2.05 µM in assay [8]; 0.189 µM in assay [10]; 0.494 µM in assay [2]; 0.123 µM in assay [3]; 0.142 µM in assay [5]; 0.575 µM in [7]. The TGI in assay [8] amounted to 50 µM; in [10], 0.718 µM; in assay [2], 1.3 µM; in assay [3] it was 0.496 µM; in assay [5], 0.421 µM; in assay [7], 1.19 µM.

`O=C(OCCCl)C1OC(n2cc(F)c(=O)[nH]c2=O)CC1O` (stereo not given): the TGI in assay [1], in [2], in [3], in [4], in [5] and in assay [6] was above 100 µM throughout. Also, the TGI in assay [7] is above 100 µM.
